Assay results as given in US11464784B2, “Inhibition of aminocylase 3 (AA3) in the treatment of cancer” (THE REGENTS OF THE UNIVERSITY OF CALIFORNIA, priority 2017, dated 2022).

T1: mAA3 (Mus musculus, UniProt Q91XE4)
T1 sequence (Q91XE4 1-318): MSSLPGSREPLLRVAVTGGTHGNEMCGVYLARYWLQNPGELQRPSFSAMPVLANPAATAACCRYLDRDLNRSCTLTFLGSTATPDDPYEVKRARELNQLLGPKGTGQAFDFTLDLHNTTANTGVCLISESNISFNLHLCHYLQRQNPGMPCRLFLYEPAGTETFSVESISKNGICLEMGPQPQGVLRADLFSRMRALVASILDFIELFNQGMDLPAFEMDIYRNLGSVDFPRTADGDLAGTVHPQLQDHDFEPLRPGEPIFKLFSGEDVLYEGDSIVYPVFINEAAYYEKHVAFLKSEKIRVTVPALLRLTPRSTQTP

B1: human AA3 (Homo sapiens) (protein)
chain: MCSLPVPREPLRRVAVTGGTHGNEMSGVYLARHWLHAPAELQRASFSAVPVLANPAATSGCRRYVDHDLNRTFTSSFLNSRPTPDDPYEVTRARELNQLLGPKASGQAFDFVLDLHNTTANMGTCLIAKSSHEVFAMHLCRHLQLQYPELSCQVFLYQRSGEESYNLDSVAKNGLGLELGPQPQGVLRADIFSRMRTLVATVLDFIELFNQGTAFPAFEMEAYRPVGVVDFPRTEAGHLAGTVHPQLQDRDFQPLQPGAPIFQMFSGEDLLYEGESTVYPVFINEAAYYEKGVAFVQTEKFTFTVPAMPALTPAPSPAS
notes: 6His (N); made in house; host or cells: E. coli

Legend:
HepG2 cells [1] = assay: Levels of FC and NAFC in HepG2 cells (LC/MS); type: cell-based, human; conditions: for FC level / level of NAFC: HepG2, 10-20 μM inhibitor, 24 h, vs untreated; for [FC]/[NAFC] ratio: HepG2 treated cells (untreated ~8.4)
Description: (§1) HUH7 and HepG2 cells were seeded in 6-well plates at a density 250,000 cells per well in complete medium. Next day the medium was changed to 2 ml DMEM with 1% FBS containing a 10-20 μM AA3 inhibitor. After 24 h incubation, the medium was collected, concentrated 10 times on a vacuum concentrator; 10 μl aliquots were used for quantitation by LC/MS and LC/MS/MS-MRM. The cells were trypsinized, washed in PBS and centrifuged at 2,000 g for 10 min. Then cell pellet was lysed on ice in 50 μl of 20 mM Tris-HCl, pH 7.5, containing 1% dodecyl maltoside (DDM) and 1× protease inhibitor cocktail (Sigma/Aldrich). After centrifugation (14,000 g, 10 min) the supernatants were diluted 4 times with methanol and centrifuged (14,000 g, 10 min), then the supernatants were diluted 10 times with water, and 10 μl aliquots were used for quantitation by LC/MS and LC/MS/MS-MRM as described above expect electrospray ionization was used with an Agilent 6460 triple quadrupole mass spectrometer.

[2] = tested on: pancreatic cancer cell lines PANC-1, MIA PaCa-2, BxPC-3; assay: MTT cell viability, pancreatic cancer cell lines; type: cell-based, human; conditions: for efficiency for pancreatic cell lines: lines expressing either wild type (wt) or mutant (mut) KRas
Text: (§2) Human colon cancer cell lines COLO 205, HCT 116, LS 513 (all ATCC), primary colon epithelial cells (Cell Biologics), pancreatic cancer cell lines PANC-1, MIA PaCa-2, BxPC-3, and normal pancreatic duct epithelial cells (UCLA collection) were used in experiments. COLO 205, LS 513, BxPC-3 cells were cultivated in RPMI 1640 medium with 10% FBS, HCT 116 cells were cultivated in McCoy's 5A medium with 10% FBS, PANC-1 and MIA PaCa-2 cell lines were cultivated in DMEM medium with 10% FBS, and normal colon and pancreatic cells were maintained in Human Epithelial Cell Medium (Cell Biologics).
(§3) HCC cell lines HepG2, HuH7, primary hepatocytes, colon cell lines COLO 205, HCT 116, LS 513, primary colon epithelial cells, pancreatic cancer cell lines PANC-1, MIA PaCa-2, BxPC-3, and normal pancreatic duct epithelial cells were seeded in 96-well plates at a density 10,000 cells per well in complete medium. Next day medium was changed to medium containing 1% FBS and an AA3 inhibitor (3-100 μM). 24 h later cell viability was determined using the MTT (3-(4,5-dimethylthiazol-2-yl)-2,5-diphenyltetrazolium bromide) cell viability assay. Cells were incubated during 4 h at 37° C. with 150 μl fresh media containing 0.5 mg/ml MTT. Then 50 μl of 20% SDS in 25 mM HCl was added to each well, incubated for 4 h and the optical density at 570 nm was measured on a VMax Kinetic Microplate Reader (Molecular Devices, Sunnyvale, Calif.).

[3] = tested on: normal primary hepatocytes; assay: MTT cell viability, normal primary hepatocytes; type: cell-based; conditions: inhibitor 10: 0-50 μM range; inhibitor 11: in comparison with HCC cell lines
Description: as §3
(§4) To study the effect of AA3 silencing, HepG2 and HUH7 cells seeded in 96-well plates were transfected with 2 pmol AA3 siRNA using the Lipofectamine RNAiMAX reagent as per the manufacturer protocol. Cell viability was measured in the MTT assay 48 h later as described.

[4] = tested on: normal pancreatic duct epithelial cells; assay: MTT cell viability, normal pancreatic cells; type: cell-based, human; conditions: for toxicity for normal vs cancer cell lines: pancreatic (FIG. 25)
Text: as §2, §3

HepG2 cells [5] = assay: MTT cell viability, HepG2; type: cell-based, human; conditions: HepG2, within the micromolar range, 24 h
Description: as §3, §4

HuH7 cells [6] = assay: MTT cell viability, HuH7; type: cell-based, human; conditions: HuH7, within the micromolar range, 24 h
Description: as §3, §4

HuH7 cells [7] = assay: Levels of FC and NAFC in HuH7 cells (LC/MS); type: cell-based, human; conditions: for FC level decreased by / level of NAFC: HuH7, 10-20 μM inhibitor, 24 h, vs untreated; for [FC]/[NAFC] ratio: HuH7 treated cells (untreated ~2.8)
Description: as §1

[8] = tested on: membrane associated Ras in HepG2 cells; assay: Membrane associated Ras in HepG2 cells (immunoblot); type: cell-based, human; conditions: HepG2, 24 h
Description: Cultured HCC cells and primary hepatocytes were washed with PBS buffer, treated with 0.25% Trypsin-EDTA solution (Corning) and precipitated at 1,000 rpm for 5 min. For protein extraction, HCC cells were lysed on ice by vortexing every 5 min for 30 min in RIPA buffer containing 20 mM Tris-HCl (pH 7.5), 150 mM NaCl, 5 mM EDTA, 1% Triton X-100, 0.5% sodium deoxycholate, 0.1% SDS, and 1× Halt protease inhibitor cocktail (Thermo Scientific, Waltham, Mass.). Prenylated Ras other membrane associated proteins were extracted from HCC cells using a Mem-PER Plus Kit (Thermo Scientific) according to the manufacturer's protocol. […]
HepG2 cells were seeded in 6-well plates at a density 250,000 cells per well. […] 24 h later cells were collected, washed with PBS and the membrane associated Ras proteins were extracted as described above, resolved on SDS-PAGE, and detected with the anti-Ras antibody (EMD Millipore).
To study the effect of AA3 suppression on Ras membrane association, HepG2 and HuH7 cells seeded onto 6-well plates at the same density, were transfected with 50 pmol ACY3 (AA3) Silencer Select Pre-designed siRNA (Invitrogen, Grand Island, N.Y.) using the Lipofectamine RNAiMAX reagent (Invitrogen) following the manufacturer protocol. […] After 48 h incubation, membrane associated proteins were extracted and membrane associated Ras was determined by immunoblotting as described above.

[9] = tested on: colon cancer cell lines COLO 205, HCT 116, LS 513; assay: MTT cell viability, colon cancer cell lines; type: cell-based, human
Text: as §2, §3

[10] = tested on: primary colon epithelial cells; assay: MTT cell viability, normal colon cells; type: cell-based, human; conditions: colon (FIG. 24)
Text: as §2
as §3, with “Cells were incubated during 4 h at 37° C. with 150 μl fresh media containing 0.5 mg/ml MTT.” left out

mAA3 = molecular target: T1, mAA3; conditions: substrate of mAA3; cited from earlier work
[11] = substrate: CC(=O)C/C(C)=C/CC/C(C)=C/CC/C(C)=C/CC/C(C)=C/CN[C@@H](CS)C(=O)O; assay: Deacetylation of NAFC and NAGGC by human AA3; type: biochemical; conditions: other: substrate of human AA3; pH 7.5
Description: (§5) AA3 activity was measured using a previously described fluorescence assay. Human purified AA3 (1 μg), rat AA1 (1 μg) or immunoaffinity purified AA3 from HepG2 and HuH7 cells were assayed for 30 min at […] in […] of 50 mM sodium phosphate buffer, pH 7.5, containing 1 mM NAFC or NAGGC both from Cayman Chemical (Ann Arbor, Mich.). Then 100 μl of the reaction mixture was added to 1 ml of 50 mM sodium phosphate buffer containing 1 mM fluorescamine, and fluorescence was measured (390 nm excitation, 475 nm emission).
(§6) To study the deacetylation of NAFC and NAGGC mediated by AA3, 50 μl aliquots from the reaction assays were injected onto Agilent Eclipse Plus C18 reverse phase HPLC column equilibrated with 0.1% formic acid, and eluted with acetonitrile/0.1% formic acid gradient (0-90%, 20 min). The effluent from the column was passed to an Ionspray ion source connected to a triple quadrupole mass-spectrometer (MS) API III+(PerkinElmer, Boston, Mass.). NAFC and NAGGC (Cayman Chemical) were used for MS calibration.

[12] = substrate: CC(=O)CC(C)=CCCC(C)=CCCC(C)=CCN[C@@H](CS)C(=O)O; assay: Deacetylation of NAFC and NAGGC by human AA3; type: biochemical; conditions: other: substrate of human AA3; pH 7.5
Description: as §5, §6

[13] = lines expressing mutant (mut) KRas
[14] = lines expressing wild type (wt) or mutant (mut) KRas

Molecule	FC level (HepG2 cells [1])	level of NAFC (HepG2 cells [1])	[FC]/[NAFC] ratio (HepG2 cells [1])	toxicity for pancreatic cancer cells [2]	toxicity to normal primary hepatocytes [3]	toxicity for pancreatic normal cells [4]	toxicity (cell viability) (HepG2 cells [5])	toxicity (cell viability) (HuH7 cells [6])	FC level decreased by (HuH7 cells [7])	level of NAFC (HuH7 cells [7])	[FC]/[NAFC] ratio (HuH7 cells [7])	level of the membrane associated Ras decreased by, % of control [8]	growth of colon cancer cell lines [9, 13]	efficiency for pancreatic cell lines [2]	toxicity for normal vs cancer cell lines [4]	toxicity for normal vs cancer cell lines [10]	growth of colon cancer cell lines [9, 14]	further results
COc1ccc(CSc2nc3cc(S(N)(=O)=O)ccc3n2C)cc1F [Inhibitor 11, 2-[(3-Fluoro-4-methoxybenzyl)sulfanyl]-1-methyl-1H-benzimidazole-5-sulfonamide]	not significantly changed	significantly increased	~2.8	toxic	significantly less toxic	toxic	toxic	toxic	approximately 50%	significantly increased	~0.9	~50%	suppress growth					
Cc1ccc(N2C(=O)/C(=C/c3cc([N+](=O)[O-])cc(Br)c3O)SC2=S)c(C)c1 [Inhibitor 3, (5Z)-5-(3-Bromo-2-hydroxy-5-nitrobenzylidene)-3-(2,4-dimethylphenyl)-2-thioxo-1,3-thiazolidin-4-one]				toxic		toxic							suppress growth					
O=c1nc(-c2ccccc2)sc2ccccc12 [Inhibitor 10, 2-Phenyl-4H-1,3-benzothiazin-4-one]	not significantly changed	significantly increased	~1.6	toxic	not toxic	toxic	toxic	toxic	approximately 50%	significantly increased	~0.85	~50%		efficient	significantly less toxic	significantly less toxic	suppress growth	
Cc1ccc(-n2sc3ccccc3c2=O)cc1 [Inhibitor 21, 2-(4-methylphenyl)-1,2-benzothiazol-3-one]				toxic		toxic								efficient	significantly less toxic	significantly less toxic	suppress growth	
CC(=O)N[C@@H](CSC(Cl)(Cl)C(F)F)C(=O)O [N-Acetyl-S-(2,2-difluoro-1,1-dichloroethyl)-L-cysteine]																		Vmax, times lower than N-acetyl-S-(2,2-dichloro-1,1-difluoroethyl)-L-cysteine (mAA3): ~30 times; affinity, times higher than N-acetyl-S-(2,2-dichloro-1,1-difluoroethyl)-L-cysteine (mAA3): ~18 times
B1																		Km [11]: 140 µM; kcat [11]: 7.2 s⁻¹; Km [12]: 25 µM; kcat [12]: 2 s⁻¹
